According to publication PMC8163216, “Macrocycle synthesis strategy based on step-wise “adding and reacting” three components enables screening of large combinatorial libraries” (Chemical Science, 2020):
Values belong to the molecule of their own block, whether it stands above or below them.

Key:
[1] = One-pot thiol-to-amine (S-to-N) bis-alkylation/conjugate addition/SNAr: Cys thiol and N-terminal secondary benzylamine (peptoid-type) bridged by bis-electrophile linkers 1-6 (8 equiv, 800 uM) after TCEP removal of the S-SO3H group (TCEP 400 uM, excess benzylamine 1.6 mM present); settings: the molecule shown is the open-chain precursor, 60 mM aq NH4HCO3 pH 8 with about 5% DMSO, 0.1 mM, 37.0 °C, 3 steps, scale: %
human thrombin = molecular target: T1, human thrombin (Homo sapiens, UniProt P00734); experiment: Determination of the inhibitory constants of purified macrocycles (thrombin, fluorogenic substrate Z-Gly-Gly-Arg-AMC); type: biochemical; settings: for Ki: purified macrocycle, 2 nM thrombin, 50 μM Z-Gly-Gly-Arg-AMC, Ki from IC50 by Cheng-Prusoff
T1 construct: consists of two polypeptide chains of 259 (H-chain) and 37 amino acid residues; purchased Molecular Innovations
Procedure: Determination of the inhibitory constants of macrocycles
The IC50s of macrocycles were determined by measuring the residual activity of thrombin at different dilutions of macrocycle using a fluorogenic substrate. The reactions were performed in a volume of 150 µl in 96-well plates. A volume of 50 µl of 2-fold dilutions of macrocycle in assay buffer (10 mM Tris-Cl [pH 7.4], 150 mM NaCl, 10 mM MgCl2, 1 mM CaCl2, 0.1% w/v BSA, 0.01% v/v Triton-X100) were pipetted to the wells. A volume of 50 µl of thrombin (6 nM) in assay buffer was added to each well to reach a final concentration of 2 nM and was incubated for 15 min. A volume of 50 µl of the fluorogenic substrate Z-Gly-Gly-Arg-AMC (150 µM) in assay buffer containing 3% DMSO was added to reach a final substrate concentration of 50 µM and 1% DMSO. Fluorescence intensity was measured for 30 min using an Infinite M200Pro plate reader (Tecan; excitation at 368 nm, emission at 467 nm) with a read every minute.
Sigmoidal curves were fitted to the data using Prism 5 (GraphPad software) and the following dose- […]
wherein x is macrocycle concentration, y is % protease activity, and p is Hill slope. IC50 values were derived […]
The inhibitory constants (Ki) were calculated using the following equation of Cheng and Prusoff: […]
wherein IC50 is the functional strength of the inhibitor, [S]0 is the total substrate concentration, and Km is the Michaelis-Menten constant. The Km for thrombin and the substrate Z-Gly-Gly-Arg-AMC was determined to […]

human plasma [2] = experiment: Activated partial thromboplastin time (aPTT), intrinsic coagulation pathway, in human plasma; type: biochemical; settings: EC2× = concentration for 2-fold increase in coagulation time
Procedure: (§1) Determination of target specificity
(§2) The specificity was profiled by testing the inhibition of a panel of trypsin-like serine proteases using fluorogenic or chromogenic substrates. Dilutions of macrocycle were prepared ranging from 40 µM to 40 nM for all proteases except for thrombin (1 µM to 1 nM). The following final concentrations of human proteases were used: 2 nM thrombin (Molecular Innovations), 0.6 nM activated protein C (APC, Molecular Innovations), 1.5 nM uPA (Molecular Innovations), 0.25 nM plasma kallikrein (Innovative Research), 1 nM factor XIa (Innovative Research), 7.5 nM tPA (Molecular Innovations), 0.1 nM trypsin (Molecular Innovations), 3 nM factor XIIa (Molecular Innovations), and 2.5 nM plasmin (Molecular Innovations). […]
(§3) A volume of 50 µl of the substrate in assay buffer containing 3% DMSO was added. Fluorescence intensity was measured for 30 min using an Infinite M200Pro plate reader (Tecan; excitation at 368 nm, emission at 467 nm) with a read every minute. For APC protease, absorption was measured at 405 nm with the same plate reader for a period of 30 min with a read every minute. […] The inhibitory constants were calculated as described above. […]
(§4) Coagulation times were determined in human plasma using a STAGO STart4 coagulation analyzer (Diagnostica). […]
(§5) ball stopped moving was recorded as coagulation time. […]

[3] = test system: panel of nine human proteases; experiment: Determination of target specificity against a panel of trypsin-like serine proteases; type: biochemical; settings: panel of nine human proteases structurally and functionally most similar to thrombin
Procedure: as §1, §2, §3, §4, §5

human plasma [4] = experiment: Prothrombin time (PT), extrinsic coagulation pathway, in human plasma; type: biochemical; settings: EC2× = concentration for 2-fold increase in coagulation time
Procedure: as §1, §2, §3, §4, §5

SMILES: C=CS(=O)(=O)CCSC[C@H](NC(=O)CNC(=O)CNCc1ccccc1)C(=O)NCC(=O)N[C@@H](Cc1c[nH]c2ccccc12)C(N)=O [Bn-NH-CH2CO-Gly-Cys(SH)-Gly-Trp-NH2]
ring closure, conversion by HPLC ([1]; 15-membered ring): 93

SMILES: C=CS(=O)(=O)CS(=O)(=O)CCSC[C@H](NC(=O)CNC(=O)CNCc1ccccc1)C(=O)NCC(=O)N[C@@H](Cc1c[nH]c2ccccc12)C(N)=O [Bn-NH-CH2CO-Gly-Cys(SH)-Gly-Trp-NH2]
ring closure, conversion by HPLC ([1]; 17-membered ring): 41

SMILES: NC(=O)[C@H](Cc1c[nH]c2ccccc12)NC(=O)CNC(=O)[C@H](CSCc1ccc(CBr)cc1)NC(=O)CNC(=O)CNCc1ccccc1 [Bn-NH-CH2CO-Gly-Cys(SH)-Gly-Trp-NH2]
ring closure, conversion by HPLC ([1]; 16-membered ring): 18

SMILES: NC(=O)[C@H](Cc1c[nH]c2ccccc12)NC(=O)CNC(=O)[C@H](CSCc1cccc(CBr)n1)NC(=O)CNC(=O)CNCc1ccccc1 [Bn-NH-CH2CO-Gly-Cys(SH)-Gly-Trp-NH2]
ring closure, conversion by HPLC ([1]; 15-membered ring): 86

SMILES: NC(=O)[C@H](Cc1c[nH]c2ccccc12)NC(=O)CNC(=O)[C@H](CSCc1ccccc1CBr)NC(=O)CNC(=O)CNCc1ccccc1 [Bn-NH-CH2CO-Gly-Cys(SH)-Gly-Trp-NH2]
ring closure, conversion by HPLC ([1]; 14-membered ring): 32

SMILES: NC(=O)[C@H](Cc1c[nH]c2ccccc12)NC(=O)CNC(=O)[C@H](CSc1ncnc(Cl)n1)NC(=O)CNC(=O)CNCc1ccccc1 [Bn-NH-CH2CO-Gly-Cys(SH)-Gly-Trp-NH2]
ring closure, conversion by HPLC ([1]; 13-membered ring): 67

Ki (human thrombin): 59 ± 6 nM
SMILES: N=C(N)NCCCC1NC(=O)CC2CCCN2C(=O)CN(Cc2ccccc2CO)Cc2ccccc2CSCC(C(N)=O)NC1=O (centres unmarked) [macrocycle 7]

Ki (human thrombin): 10.6 ± 2 nM | fold improvement of Ki over parental macrocycle 7 (human thrombin; thrombin Ki relative to 7): 5.5 fold
SMILES: N=C(N)NCCC[C@@H]1NC(=O)C[C@H]2CCCN2C(=O)CN(Cc2ccco2)Cc2ccccc2CSC[C@@H](C(N)=O)NC1=O [macrocycle 57]
fold better aPTT EC2× than parent 7 (human plasma [2]): 1.4 fold | target selectivity [3]: high target selectivity | fold better PT EC2× than parent 7 (human plasma [4]): 1.9 fold

Ki (human thrombin): 95 ± 17 nM
SMILES: N=C(N)NCCC[C@@H]1NC(=O)C[C@H]2CCCN2C(=O)CN(Cc2ccccc2CO)Cc2ccccc2CSC[C@@H](C(N)=O)NC1=O [macrocycle 60]

Ki (human thrombin): 520 ± 110 nM
SMILES: N=C(N)NCCC[C@@H]1NC(=O)C[C@@H]2CCCN2C(=O)CN(Cc2ccco2)Cc2ccccc2CSC[C@@H](C(N)=O)NC1=O [macrocycle 61]
